Assay results published in patent US20150367004A1, “COMPOSITIONS AND METHODS OF DIAGNOSING OCULAR DISEASES” (MOLECULAR TARGETING TECHNOLOGIES, INC., priority 2012, published 2015).

Tested on: corneal surface after BAC-induced toxicity
Experiment: In vivo fluorescence imaging of the cornea after BAC-induced corneal toxicity, compared with lissamine green staining
Parameters: species or system rat
Settings: 0.1% and 0.2% BAC twice daily for 7 days
Method: Adult Wistar rats were given topical instillation of 0.2, 0.1 and 0.02% BAC in 0.9% balanced salt solution (BSS) twice daily for 7 days. External ocular examination was performed and lissamine green staining was used to evaluate the corneal damage prior to and after experiments. One hour after topical Zn-DPA 480 administration, convention light and fluorescence images were taken on animals.
There was no remarkable change on the cornea after administration of BSS. Results are illustrated in FIG. 3.

CN(C)c1ccc(C(=C2C=CC(=[N+](C)C)C=C2)c2c(O)c(S(=O)(=O)[O-])cc3cc(S(=O)(=O)[O-])ccc23)cc1.[Na+] [lissamine green]
Corneal staining: positive lissamine green staining
